According to US10870624B2, “Histone deacetylase inhibitors” (Karus Therapeutics Limited, priority 2013, dated 2020):

Columns and labels:
Recombinant human HDAC6 = target: T1, Recombinant human HDAC6 (Homo sapiens, UniProt Q9UBN7); experiment: Biochemical HDAC assay with acetylated AMC-labeled peptide substrate, HDAC6; conditions: HDAC6, 2 hours at 30° C.; read-out: IC50 (nM) HDAC 6
T1 construct: full length, MW=180 kDa, was expressed by baculovirus in Sf9 insect cells; GST (N); made in house; host or cells: Sf9 insect cells (baculovirus)
T1 sequence (Q9UBN7 1-1215): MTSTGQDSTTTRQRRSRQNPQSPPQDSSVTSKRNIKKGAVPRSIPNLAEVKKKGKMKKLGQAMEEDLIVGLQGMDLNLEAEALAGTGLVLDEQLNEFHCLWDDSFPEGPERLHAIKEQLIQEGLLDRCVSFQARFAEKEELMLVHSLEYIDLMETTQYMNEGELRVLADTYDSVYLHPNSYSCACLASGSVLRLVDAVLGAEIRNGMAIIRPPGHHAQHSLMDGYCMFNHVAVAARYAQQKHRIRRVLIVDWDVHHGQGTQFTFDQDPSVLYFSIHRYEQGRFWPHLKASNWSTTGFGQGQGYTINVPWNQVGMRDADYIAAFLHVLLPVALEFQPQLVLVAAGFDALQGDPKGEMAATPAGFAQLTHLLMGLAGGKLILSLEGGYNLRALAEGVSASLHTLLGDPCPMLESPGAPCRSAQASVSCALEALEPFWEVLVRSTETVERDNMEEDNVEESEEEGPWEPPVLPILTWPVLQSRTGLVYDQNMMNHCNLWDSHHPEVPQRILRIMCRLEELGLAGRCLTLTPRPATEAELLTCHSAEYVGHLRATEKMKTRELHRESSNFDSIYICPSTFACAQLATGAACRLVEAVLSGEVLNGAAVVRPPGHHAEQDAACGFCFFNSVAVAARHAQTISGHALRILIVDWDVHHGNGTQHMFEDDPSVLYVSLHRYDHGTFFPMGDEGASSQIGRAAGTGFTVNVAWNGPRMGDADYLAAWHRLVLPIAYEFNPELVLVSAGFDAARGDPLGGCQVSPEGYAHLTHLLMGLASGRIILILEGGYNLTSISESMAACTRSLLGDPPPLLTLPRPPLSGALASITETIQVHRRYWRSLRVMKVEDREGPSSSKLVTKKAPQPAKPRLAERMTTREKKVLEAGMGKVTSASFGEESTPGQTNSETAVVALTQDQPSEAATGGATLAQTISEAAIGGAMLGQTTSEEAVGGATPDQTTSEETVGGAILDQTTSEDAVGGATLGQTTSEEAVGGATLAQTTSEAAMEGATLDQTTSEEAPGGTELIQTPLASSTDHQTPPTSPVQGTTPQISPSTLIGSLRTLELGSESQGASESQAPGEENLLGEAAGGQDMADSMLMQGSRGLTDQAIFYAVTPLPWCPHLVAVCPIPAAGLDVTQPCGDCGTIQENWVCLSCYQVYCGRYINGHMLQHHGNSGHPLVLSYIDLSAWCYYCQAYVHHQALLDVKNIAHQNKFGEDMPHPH
Protocol: (§1) Activity against all zinc-dependent HDACs 1 to 11 was assessed by using an acetylated AMC-labeled peptide substrate. The substrate RHKKAc was used for all class I and IIb HDACs; for […], the substrate used was RHKAcKAc. […] All assays were based on the AMC-labeled substrate and developer combination.
(§2) The protocol involved a two-step reaction: first, the substrate with the acetylated lysine side chain is incubated with a sample containing HDAC activity, to produce the deacetylated products, which are then digested in the second step by the addition of developer to produce the fluorescent signal proportional to the amount of deacetylated substrates.
Recombinant human HDAC6 (GenBank Accession No. BC069243), full length, MW=180 kDa, was expressed by baculovirus in Sf9 insect cells using an N-terminal GST tag.
(§3) Before use, 1 mg/mL BSA and DMSO are added.
(§4) Incubate for 2 hours at 30° C.
(§5) Stage 1: Deacetylation of substrate by incubation of HDAC enzymes with compounds
(§6) Stage 2: Development by addition of Developer to digest the deacetylated substrate, and generate the fluorescent color; Detection: 360/460 Ex/Em

Human HDAC1 = target: T2, Human HDAC1 (Homo sapiens, UniProt Q13547); experiment: Biochemical HDAC assay with acetylated AMC-labeled peptide substrate, HDAC1; conditions: HDAC1, 2 hours at 30° C.; read-out: IC50 (nM) HDAC 1
T2 construct: full length with C-terminal His-tag and C-terminal FLAG-tag; His-tag (C); FLAG-tag (C); made in house; host or cells: baculovirus expression system (insect cells)
T2 sequence (Q13547 whole entry): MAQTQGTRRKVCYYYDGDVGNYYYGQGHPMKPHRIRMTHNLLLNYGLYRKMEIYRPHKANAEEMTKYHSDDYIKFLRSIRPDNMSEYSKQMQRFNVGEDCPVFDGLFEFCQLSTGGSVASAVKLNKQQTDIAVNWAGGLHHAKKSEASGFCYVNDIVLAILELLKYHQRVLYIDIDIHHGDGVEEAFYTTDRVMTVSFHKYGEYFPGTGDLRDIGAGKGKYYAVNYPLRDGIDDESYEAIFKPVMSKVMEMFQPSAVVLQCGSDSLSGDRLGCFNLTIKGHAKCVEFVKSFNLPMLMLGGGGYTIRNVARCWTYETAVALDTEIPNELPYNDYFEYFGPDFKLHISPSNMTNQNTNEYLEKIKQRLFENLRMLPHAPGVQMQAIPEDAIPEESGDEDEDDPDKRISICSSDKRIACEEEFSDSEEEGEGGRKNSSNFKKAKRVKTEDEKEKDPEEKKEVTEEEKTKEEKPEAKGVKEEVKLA
Protocol: as §1, §2
Human HDAC1 (GenBank Accession No. NM_004964), full length with C-terminal His-tag and C-terminal FLAG-tag, MW=56 kDa, expressed in baculovirus expression system.
as §3, §4, §5, §6

| Compound | IC50 (Recombinant human HDAC6) [nM] | IC50 (Human HDAC1) [nM] |
| --- | --- | --- |
| O=C(NO)c1ccc(CN(c2ccccn2)c2ccccn2)cc1 [Example A, 4-{[Bis(pyridin-2-yl)amino]methyl}-N-hydroxybenzamide] | ≤ 500 | > 10000 |
| Cc1nsc(N(Cc2ccc(C(=O)NO)c(F)c2)c2nc(C)ns2)n1 [Example B, 4-{[Bis(3-methyl-1,2,4-thiadiazol-5-yl)amino]methyl}-2-fluoro-N-hydroxybenzamide] | ≤ 500 | > 10000 |
| Cc1noc(N(Cc2ccc(C(=O)NO)c(F)c2)c2nc(C)ns2)n1 [Example C, 2-Fluoro-N-hydroxy-4-{[(3-methyl-1,2,4-oxadiazol-5-yl)(3-methyl-1,2,4-thiadiazol-5-yl)amino]methyl}benzamide] | ≤ 500 | 1000 to 10000 |
| Cc1noc(N(Cc2ccc(C(=O)NO)cc2)c2ccccn2)n1 [Example D, N-Hydroxy-4-(((3-methyl-1,2,4-oxadiazol-5-yl)(pyridin-2-yl)amino)methyl)benzamide] | ≤ 500 | 1000 to 10000 |
| Cn1ccc(N(Cc2ccc(C(=O)NO)cc2)c2ccccn2)n1 [Example E, N-Hydroxy-4-(((1-methyl-1H-pyrazol-3-yl)(pyridin-2-yl)amino)methyl)benzamide] | ≤ 500 | 1000 to 10000 |
| O=C(NO)c1ccc(CN(c2ccccn2)c2nncs2)cc1 [Example F, N-Hydroxy-4-((pyridin-2-yl(1,3,4-thiadiazol-2-yl)amino)methyl)benzamide] | ≤ 500 | > 10000 |
| O=C(NO)c1ccc(CN(c2ccccn2)c2cnccn2)cc1 [Example G, N-Hydroxy-4-((pyrazin-2-yl(pyridin-2-yl)amino)methyl)benzamide] | ≤ 500 | > 10000 |
